Assay results taken from US6403626B1, “Benzimidazole derivatives” (Synaptic Pharmaceutical Corporation, priority 1994, dated 2002).
Read-outs that look alike come from different tables or passages of the source.

Columns and labels:
[1] = molecular target: T1, α2C Human Adrenergic Receptor (Homo sapiens, UniProt P18825); type: cell-based; set-up: The entire coding region of α2C (1383 bp), including 2 bp of 5′ UT and 400 bp of 3′ UT; expressed in transfected cells; host or cells: LM(tk-) cells; details: for I.A Alpha-2 C: functional cAMP assay
T1 sequence (P18825 1-462): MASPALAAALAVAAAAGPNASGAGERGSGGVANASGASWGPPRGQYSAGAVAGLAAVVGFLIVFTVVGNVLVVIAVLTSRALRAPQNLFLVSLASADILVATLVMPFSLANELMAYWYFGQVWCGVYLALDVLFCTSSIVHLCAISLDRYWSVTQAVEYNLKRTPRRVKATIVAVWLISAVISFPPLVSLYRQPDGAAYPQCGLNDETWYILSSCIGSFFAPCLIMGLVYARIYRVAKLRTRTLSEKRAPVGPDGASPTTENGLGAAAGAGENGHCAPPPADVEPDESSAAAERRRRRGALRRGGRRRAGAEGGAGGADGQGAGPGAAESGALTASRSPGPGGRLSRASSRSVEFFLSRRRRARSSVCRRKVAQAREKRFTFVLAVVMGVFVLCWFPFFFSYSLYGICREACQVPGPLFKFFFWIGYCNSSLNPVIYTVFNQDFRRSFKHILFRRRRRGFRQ

[2] = molecular target: T2, α2B Human Adrenergic Receptor (Homo sapiens, UniProt P18089); type: cell-based
T2 construct: expressed in transfected cells; host or cells: Y-1 cells
T2 sequence (P18089 1-450): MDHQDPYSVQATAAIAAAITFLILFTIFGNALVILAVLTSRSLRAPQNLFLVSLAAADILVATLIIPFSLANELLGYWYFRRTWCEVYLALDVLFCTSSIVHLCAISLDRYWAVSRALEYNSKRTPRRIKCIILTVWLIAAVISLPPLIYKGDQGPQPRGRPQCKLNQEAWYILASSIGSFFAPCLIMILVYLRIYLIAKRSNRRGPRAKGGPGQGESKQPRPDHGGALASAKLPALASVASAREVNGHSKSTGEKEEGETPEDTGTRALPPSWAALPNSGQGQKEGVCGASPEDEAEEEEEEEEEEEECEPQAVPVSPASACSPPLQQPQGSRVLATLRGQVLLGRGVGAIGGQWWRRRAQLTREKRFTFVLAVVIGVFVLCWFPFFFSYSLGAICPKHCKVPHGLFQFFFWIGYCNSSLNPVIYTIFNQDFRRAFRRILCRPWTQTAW

[3] = molecular target: T2, α2B Human Adrenergic Receptor; assay: Equilibrium competition binding, [3H] rauwolscine, membranes of transfected Y-1 cells
[4] = test system: Adult rhesus monkeys (Macaca mulatta); assay: Sedation and muscle relaxation rating; type: in vivo; details: subcutaneous, cumulative dosing 0.1-3.2 mg/kg, versus clonidine 0.032-1.0 mg/kg
Source text: Subjects. Adult rhesus monkeys (Macaca mulatta) of either sex were housed individually with free access to water. They were fed fresh fruit weekly and approximately 40 biscuits (Purina Monkey Chow) daily.
Procedure. Monkeys were trained to receive subcutaneous injections while in their home cages; they were rated by one non-blind observer familiar with the individual subjects, according to modified rating scales for sedation and muscle relaxation (Table 2); Separate scales describe increasing degrees of sedation (as measured by responsiveness to stimuli) and muscle relaxation (as observed through changes in posture). Animals were injected in a cumulative dosing procedure with a 30 minute interinjection interval; observer rating on both scales took place approximately 15 minutes after each injection.
Design. […] The same three monkeys were typically studied under each se of conditions.

[5] = molecular target: α2C Human Adrenergic Receptor (Homo sapiens, UniProt P18825); assay: Equilibrium competition binding, [3H] rauwolscine, membranes of transfected LM(tk-) cells
[6] = inhibition of forskolin-stimulated cAMP, NA: Not Active, read-out: pEC50 Alpha-2 C (converted)
[7] = inhibition of forskolin-stimulated cAMP, NA: Not Active, read-out: pEC50 Alpha-2 B (converted)
[8] = cloned human receptor, [3H] rauwolscine, read-out: pKi Alpha-2 B (converted)
[9] = inhibition of forskolin-stimulated cAMP, NA: Not Active

SMILES | EC50 [1] | I.A Alpha-2 C [1] | EC50 [2] | I.A Alpha-2 B [2] | Ki [3] | I.A Alpha-2 B ([2]; functional cAMP assay) | EC50 [2, 7] | Ki [3, 8] | other results
c1nc2ccc(NC3=NCCN3)cc2[nH]1 [Example 1, 5-(2-Imidazolin-2-ylamino)Benzimidazole] | 0.00275 µM | 1.00 | 0.0447 µM | 1.00 | 0.0741 µM |  |  |  | 
Brc1c(NC2=NCCN2)ccc2nc[nH]c12 [Example 2, 4-Bromo-5-(2-imidazolin-2-ylamino)Benzimidazole] |  | 1.00 |  |  |  | 1.00 | 0.0186 µM | 0.0204 µM | EC50 [1, 6]: 0.117 µM
Clc1c(NC2=NCCN2)ccc2nc[nH]c12 [Example 3, 4-Chloro-5-(2-imidazolin-2-ylamino)Benzimidazole] | 0.000562 µM | 1.00 |  |  |  | 1.00 | 0.0126 µM | 0.0155 µM | 
Cc1c(N=C2NCCN2)ccc2[nH]cnc12 [Example 4, 4-Methyl-5-(2-imidazolin-2-ylamino)Benzimidazole] |  |  |  |  |  |  | 0.00977 µM | 0.00912 µM | sedation [4]: decreased sedation relative to the reference compound, clonidine; EC50 [1, 6]: 0.000355 µM
Ic1c(NC2=NCCN2)ccc2nc[nH]c12 [Example 5, 4-Iodo-5-(2-imidazolin-2-ylamino)Benzimidazole] | 0.00135 µM | 1.00 | 0.0468 µM | 1.00 | 0.0309 µM |  |  |  | 
CCCc1c(NC2=NCCN2)ccc2nc[nH]c12 [Example 7, 4-n-Propyl-5-(2-imidazolin-2-ylamino)Benzimidazole] | 0.00617 µM | 1.00 | 0.2 µM | 1.00 |  |  |  |  | 
CCCCc1c(NC2=NCCN2)ccc2nc[nH]c12 [Example 8, 4-n-Butyl-5-(2-imidazolin-2-ylamino)Benzimidazole] |  | 1.00 |  |  |  | 0.80 | 0.234 µM | 0.0501 µM | 
Cn1cnc2cc(NC3=NCCN3)ccc21 [Example 9, 1-Methyl-5-(2-imidazolin-2-ylamino)Benzimidazole] |  | 1.00 |  |  |  | 1.00 | 0.0589 µM | 0.0468 µM | 
Cn1cnc2c(Br)c(NC3=NCCN3)ccc21 [Example 10, 1-Methyl-4-bromo-5-(2-imidazolin-2-ylamino)Benzimidazole] | 0.00234 µM | 1.00 | 0.102 µM | 1.00 | 0.0282 µM |  |  |  | melting point: 237 to 238 °C
Cn1cnc2ccc(NC3=NCCN3)c(Br)c21 [Example 12, 3-Methyl-4-bromo-5-(imidazolin-2-ylamino)Benzimidazole] |  | 1.00 |  |  |  | 1.00 |  |  | pEC50 Alpha-2 C [1, 9]: 7.76; pEC50 Alpha-2 B [2, 9]: 7.51; pKi Alpha-2 B ([3]; cloned human receptor, [3H] rauwolscine): 7.84
COc1ccc(Cn2cnc3c(Br)c(NC4=NCCN4)ccc32)cc1 [Example 36, 1-(4-Methoxybenzyl)-4-bromo-5-(2-imidazolin-2-ylamino)Benzimidazole] |  |  |  |  |  | 0.60 | 0.282 µM | 0.107 µM | 
OCCn1cnc2c(Br)c(NC3=NCCN3)ccc21 [Example 38, 1-(2-Hydroxyethyl)-4-bromo-5-(2-imidazolin-2-ylamino)Benzimidazole] |  | 1.00 |  |  |  | 0.80 | 0.158 µM | 0.525 µM | EC50 [1, 6]: 0.363 µM
Cc1nc2ccc(NC3=NCCN3)c(Br)c2[nH]1 [Example 42, 2-Methyl-4-bromo-5-(2-imidazolin-2-ylamino)Benzimidazole] |  |  | 0.0977 µM | 0.60 | 0.0234 µM |  |  |  | 
CCc1nc2ccc(NC3=NCCN3)c(Br)c2[nH]1 [Example 43, 2-Ethyl-4-bromo-5-(2-imidazolin-2-ylamino)Benzimidazole] |  | 0.90 | 0.162 µM | 0.80 | 0.0339 µM |  |  |  | 
CC(C)c1nc2ccc(NC3=NCCN3)c(Br)c2[nH]1 [Example 44, 2-Isopropyl-4-bromo-5-(2-imidazolin-2-ylamino)Benzimidazole] |  | 0.80 | 0.0912 µM | 0.80 | 0.0468 µM |  |  |  | EC50 [1, 6]: 0.182 µM
CC(C)(C)c1nc2ccc(NC3=NCCN3)c(Br)c2[nH]1 [Example 45, 2-tert-Butyl-4-bromo-5-(2-imidazolin-2-ylamino)Benzimidazole] |  | 0.60 | 0.851 µM | 0.70 | 0.0832 µM |  |  |  | 
FC(F)(F)c1nc2ccc(NC3=NCCN3)c(Br)c2[nH]1 [Example 46, 2-Trifluoromethyl-4-bromo-5-(2-imidazolin-2-ylamino)Benzimidazole] |  | 0.90 | 0.589 µM | 0.80 | 0.105 µM |  |  |  | Ki [5]: 1.48 µM
Brc1c(NC2=NCCN2)ccc2nc(C(c3ccccc3)c3ccccc3)[nH]c12 [Example 48, 2-Diphenylmethyl-4-bromo-5-(2-imidazolin-2-ylamino)Benzimidazole] |  | 0.60 |  |  |  | 0.80 | 0.2 µM | 0.661 µM | EC50 [1, 6]: 0.00135 µM
Brc1cc2nc[nH]c2c(Br)c1NC1=NCCN1 [Example 50, 4,6-Dibromo-5-(2-imidazolin-2-ylamino)Benzimidazole] | 0.0708 µM | 1.00 | 0.0209 µM | 0.90 | 0.00234 µM |  |  |  | 
Clc1cc(NC2=NCCN2)cc2[nH]cnc12 [Example 53, 7-Chloro-5-(2-imidazolin-2-ylamino)Benzimidazole] | 0.00107 µM | 1.00 | 0.0182 µM | 1.00 | 0.0182 µM |  |  |  | 
CCCCc1cc(NC2=NCCN2)cc2[nH]cnc12 [Example 56, 7-Butyl-5-(2-imidazolin-2-ylamino)Benzimidazole] |  | 1.00 |  |  |  | 0.30 | 0.219 µM | 0.182 µM | 
Clc1cc(NC2=NCCN2)c(Br)c2[nH]cnc12 [Example 60, 4-Bromo-7-chloro-5-(2-imidazolin-2-ylamino)Benzimidazole] | 0.000398 µM | 1 | 0.0178 µM | 0.9 | 0.000468 µM |  |  |  | 
